# According to patent publication US7244431B2, “Allergy vaccines and their preparation” (priority 2000, dated 2007):
# How the values were obtained:
# [1] = tested on: birch pollen allergic patients; assay: Skin prick testing of allergic patients; format: in vivo, human
# Experimental: SPTs were performed on the individuals forearms as described ([…]. et al. (1997) J. Clin Invest. 99, 1673-168; Dreborg S: (1989) J. Am. Acad. DerMatol. 21, 820-821). […] In addition standardized skin prick solutions (birch pollen extract and histamine) (Allergopharma, Reinbek, Germany) were tested. Reactions were recorded 20 minutes after SPT by photography and by transferring the ballpoint pen-surrounded wheal area with a scotch tape to paper.
# [2] = tested on: IgE antibodies in sera from birch pollen allergic patients; assay: ELISA detection of peptide- and rBet v 1-specific IgE antibodies; format: binding, human
# Experimental: Birch pollen allergic patients suffering from allergic rhinoconjunctivitis and/or asthma to birch pollen and related allergens were selected according to case history indicative for seasonal birch pollinosis and characterized by skin prick testing with birch pollen extract and serological CAP RAST (Pharmacia Diagnostics, Uppsala, Sweden) testing. Total IgE levels in the sera were determined by CAP RIST measurements (Pharmacia). […] Sera from 60 birch pollen allergic patients and a non-atopic individual were used for IgE competition studies. The birch pollen allergic patients group consisted of 25 males and 35 females with a mean age of 37 years (ranging from 19-60 years) (Table 2).
# Subsequently, plates were incubated with 1:3 diluted sera from 60 birch pollen allergic patients and from a non-atopic individual overnight at 4° C. Bound IgE antibodies were detected with a 1:1000 diluted alkaline-phosphatase-coupled mouse monoclonal anti-human IgE antibody (Pharmingen, San Diego, Calif.).
molecule,measurement,setting,value
"NCCc1c[nH]cn1 [histamine, reference compound]",mean wheal diameter,"[1]; individual 1, standardized skin prick solution",5 mm
same,mean wheal diameter,"[1]; individual 2, standardized skin prick solution",6 mm
same,mean wheal diameter,"[1]; individual 3, standardized skin prick solution",7 mm
same,mean wheal diameter,"[1]; individual 4, standardized skin prick solution",5 mm
same,mean wheal diameter,"[1]; individual 5, standardized skin prick solution",5.5 mm
same,mean wheal diameter,"[1]; individual 6 (without birch pollen allergy), standardized skin prick solution",4 mm
same,immediate skin reaction,[1]; standardized skin prick solutions,All individuals reacted
"CGPGTIKKISFPEGFPFKYVKDRVDEVDHTN [Peptide P3, Bet v 1-derived synthetic peptide, position aa 50-79, one cysteine added]",mean wheal diameter,"[1]; individual 1, 100 μg/ml",0 mm
same,mean wheal diameter,"[1]; individual 2, 100 μg/ml",0 mm
same,mean wheal diameter,"[1]; individual 3, 100 μg/ml",0 mm
same,mean wheal diameter,"[1]; individual 4, 100 μg/ml",0 mm
same,mean wheal diameter,"[1]; individual 5, 100 μg/ml",0 mm
same,mean wheal diameter,"[1]; individual 6 (allergic, without birch pollen allergy), 100 μg/ml",0 mm
same,IgE (OD),"[2]; serum of NHS, non-allergic control individual",— (Dashes indicate reactivities below the cut-off level (OD=0.050))
same,IgE (OD),[2]; serum of patient 1,— (Dashes indicate reactivities below the cut-off level (OD=0.050))
same,IgE (OD),[2]; serum of patient 2,— (Dashes indicate reactivities below the cut-off level (OD=0.050))
same,IgE (OD),[2]; serum of patient 3,— (Dashes indicate reactivities below the cut-off level (OD=0.050))
same,IgE (OD),[2]; serum of patient 4,— (Dashes indicate reactivities below the cut-off level (OD=0.050))
same,IgE (OD),[2]; serum of patient 5,— (Dashes indicate reactivities below the cut-off level (OD=0.050))
same,IgE (OD),[2]; serum of patient 6,— (Dashes indicate reactivities below the cut-off level (OD=0.050))
same,IgE (OD),[2]; serum of patient 7,— (Dashes indicate reactivities below the cut-off level (OD=0.050))
same,IgE (OD),[2]; serum of patient 8,— (Dashes indicate reactivities below the cut-off level (OD=0.050))
same,IgE (OD),[2]; serum of patient 9,— (Dashes indicate reactivities below the cut-off level (OD=0.050))
same,IgE (OD),[2]; serum of patient 10,— (Dashes indicate reactivities below the cut-off level (OD=0.050))
same,IgE (OD),[2]; serum of patient 11,— (Dashes indicate reactivities below the cut-off level (OD=0.050))
same,IgE (OD),[2]; serum of patient 12,— (Dashes indicate reactivities below the cut-off level (OD=0.050))
same,IgE (OD),[2]; serum of patient 13,— (Dashes indicate reactivities below the cut-off level (OD=0.050))
same,IgE (OD),[2]; serum of patient 14,— (Dashes indicate reactivities below the cut-off level (OD=0.050))
same,IgE (OD),[2]; serum of patient 15,— (Dashes indicate reactivities below the cut-off level (OD=0.050))
same,IgE (OD),[2]; serum of patient 16,— (Dashes indicate reactivities below the cut-off level (OD=0.050))
same,IgE (OD),[2]; serum of patient 17,— (Dashes indicate reactivities below the cut-off level (OD=0.050))
same,IgE (OD),[2]; serum of patient 18,— (Dashes indicate reactivities below the cut-off level (OD=0.050))
same,IgE (OD),[2]; serum of patient 19,— (Dashes indicate reactivities below the cut-off level (OD=0.050))
same,IgE (OD),[2]; serum of patient 20,— (Dashes indicate reactivities below the cut-off level (OD=0.050))
same,IgE (OD),[2]; serum of patient 21,— (Dashes indicate reactivities below the cut-off level (OD=0.050))
same,IgE (OD),[2]; serum of patient 22,— (Dashes indicate reactivities below the cut-off level (OD=0.050))
same,IgE (OD),[2]; serum of patient 23,— (Dashes indicate reactivities below the cut-off level (OD=0.050))
same,IgE (OD),[2]; serum of patient 24,— (Dashes indicate reactivities below the cut-off level (OD=0.050))
same,IgE (OD),[2]; serum of patient 25,— (Dashes indicate reactivities below the cut-off level (OD=0.050))
same,IgE (OD),[2]; serum of patient 26,— (Dashes indicate reactivities below the cut-off level (OD=0.050))
same,IgE (OD),[2]; serum of patient 27,— (Dashes indicate reactivities below the cut-off level (OD=0.050))
same,IgE (OD),[2]; serum of patient 28,— (Dashes indicate reactivities below the cut-off level (OD=0.050))
same,IgE (OD),[2]; serum of patient 29,— (Dashes indicate reactivities below the cut-off level (OD=0.050))
same,IgE (OD),[2]; serum of patient 30,— (Dashes indicate reactivities below the cut-off level (OD=0.050))
same,IgE (OD),[2]; serum of patient 31,— (Dashes indicate reactivities below the cut-off level (OD=0.050))
same,IgE (OD),[2]; serum of patient 32,— (Dashes indicate reactivities below the cut-off level (OD=0.050))
same,IgE (OD),[2]; serum of patient 33,— (Dashes indicate reactivities below the cut-off level (OD=0.050))
same,IgE (OD),[2]; serum of patient 34,— (Dashes indicate reactivities below the cut-off level (OD=0.050))
same,IgE (OD),[2]; serum of patient 35,— (Dashes indicate reactivities below the cut-off level (OD=0.050))
same,IgE (OD),[2]; serum of patient 36,— (Dashes indicate reactivities below the cut-off level (OD=0.050))
same,IgE (OD),[2]; serum of patient 37,— (Dashes indicate reactivities below the cut-off level (OD=0.050))
same,IgE (OD),[2]; serum of patient 38,— (Dashes indicate reactivities below the cut-off level (OD=0.050))
same,IgE (OD),[2]; serum of patient 39,— (Dashes indicate reactivities below the cut-off level (OD=0.050))
same,IgE (OD),[2]; serum of patient 40,— (Dashes indicate reactivities below the cut-off level (OD=0.050))
same,IgE (OD),[2]; serum of patient 41,— (Dashes indicate reactivities below the cut-off level (OD=0.050))
same,IgE (OD),[2]; serum of patient 42,— (Dashes indicate reactivities below the cut-off level (OD=0.050))
same,IgE (OD),[2]; serum of patient 43,— (Dashes indicate reactivities below the cut-off level (OD=0.050))
same,IgE (OD),[2]; serum of patient 44,— (Dashes indicate reactivities below the cut-off level (OD=0.050))
same,IgE (OD),[2]; serum of patient 45,— (Dashes indicate reactivities below the cut-off level (OD=0.050))
same,IgE (OD),[2]; serum of patient 46,— (Dashes indicate reactivities below the cut-off level (OD=0.050))
same,IgE (OD),[2]; serum of patient 47,— (Dashes indicate reactivities below the cut-off level (OD=0.050))
same,IgE (OD),[2]; serum of patient 48,— (Dashes indicate reactivities below the cut-off level (OD=0.050))
same,IgE (OD),[2]; serum of patient 49,— (Dashes indicate reactivities below the cut-off level (OD=0.050))
same,IgE (OD),[2]; serum of patient 50,— (Dashes indicate reactivities below the cut-off level (OD=0.050))
same,IgE (OD),[2]; serum of patient 51,— (Dashes indicate reactivities below the cut-off level (OD=0.050))
same,IgE (OD),[2]; serum of patient 52,— (Dashes indicate reactivities below the cut-off level (OD=0.050))
same,IgE (OD),[2]; serum of patient 53,— (Dashes indicate reactivities below the cut-off level (OD=0.050))
same,IgE (OD),[2]; serum of patient 54,— (Dashes indicate reactivities below the cut-off level (OD=0.050))
same,IgE (OD),[2]; serum of patient 55,— (Dashes indicate reactivities below the cut-off level (OD=0.050))
same,IgE (OD),[2]; serum of patient 56,— (Dashes indicate reactivities below the cut-off level (OD=0.050))
same,IgE (OD),[2]; serum of patient 57,— (Dashes indicate reactivities below the cut-off level (OD=0.050))
same,IgE (OD),[2]; serum of patient 58,— (Dashes indicate reactivities below the cut-off level (OD=0.050))
same,IgE (OD),[2]; serum of patient 59,— (Dashes indicate reactivities below the cut-off level (OD=0.050))
same,IgE (OD),[2]; serum of patient 60,— (Dashes indicate reactivities below the cut-off level (OD=0.050))
